From patent publication US20090076050A1, “SYNERGISTIC TUMOR-KILLING EFFECT OF RADIATION AND BERBERINE COMBINED TREATMENT IN LUNG CANCER” (CHUNG SHAN MEDICAL U., priority 2007, published 2009) come the findings set out here.

This experiment deals with A549 cells. Here is the method: Cells were cultured in phenol-red-free medium and irradiated with a […] (Varian, 21-EX). The radiation was delivered as a single dose ranging from 2 to 8 Gy in an appropriate field size at a dose rate of 400 cGy/min. A 3-cm polystyrene block was used under the petri dishes during each irradiation to allow homogeneous backscattering radiation. Control cells were removed from the incubator and placed for the same period of time under the IR source but without radiation treatment. In the combined treatment mortality tests, berberine was added 2 h prior to irradiation.
The enhancing effect of berberine on radio-sensitivity in NSCLC was performed by treating A549 with various concentrations of berberine alone or combined with different dose of IR at 37° C. for 24 h or 48 h followed by MTT assay for cell viability analysis. Thereafter, the medium was changed and incubated with 100 μl MTT (Sigma St Louis, Mo.)/well for 4 h, which was solubilized in isopropanol, and measured spectrophotometrically at 563 nm. […] To further ascertain the effect of berberine on the lethality of IR, clonogenic survival assay was performed to examine long term survival. […] After 14 days, colonies were fixed with methanol, stained with 0.25% crystal violet, and counted if they were consisted of more than 50 cells. […]

As to `COc1ccc2cc3[n+](cc2c1OC)CCc1cc2c(cc1-3)OCO2` [berberine, Berberine], the cell viability entry (IR applied to cells incubated with berberine, 24 h and 48 h, A549 (FIG. 1B)) is “decreased”. Also, the “combination effect on cell viability” value (berberine combined with 6 Gy IR, 24 h, A549 (FIG. 1A)) was “conspicuous”.
